Test results reported in patent publication US11446287B2, “Compounds and methods for EP300 or CBP modulation and indications therefor” (Opna Immuno-Oncology SA, priority 2019, dated 2022).

What follows are compounds tested against T1, Recombinant human CBP containing the bromodomain (CBP-BD (1043-1159)) (Homo sapiens, UniProt Q92793) (assay: CBP Alphascreen binding assay). Settings: read-out: CREBBP (CBP) IC50.
T1 construct: Recombinant human CBP bromodomain (CBP-BD (1043-1159)); made in house; host or cells: E. coli BL21-CodonPlus (DE3), modified pET vector
T1 sequence (Q92793 1081-1197): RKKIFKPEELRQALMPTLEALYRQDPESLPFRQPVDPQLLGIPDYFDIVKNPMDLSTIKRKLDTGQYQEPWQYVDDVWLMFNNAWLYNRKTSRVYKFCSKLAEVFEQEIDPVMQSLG
Summary of the method: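 Buffer: 50 mM HEPES pH 7.5, 50 mM NaCl, 0.01% BSA, 0.01% Triton X-100, 2 mM DTT. The signal was normalised to plate controls and fitted with a four-parameter curve to give IC50.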
Work on CCOc1cc(C(=O)O)cc(OCC)c1-n1cc(-c2ccc(F)c(Cl)c2)c2ncc(-c3c(C)noc3C)cc21 [P-0209, 4-(3-(3-chloro-4-fluorophenyl)-6-(3,5-dimethylisoxazol-4-yl)-1H-pyrrolo[3,2-b]pyridin-1-yl)-3,5-diethoxybenzoic acid] yielded an IC50 of 0.1 to 1000 nM. With CCOc1cc(C(=O)O)cc(OCC)c1-n1cc(CC2CCC2)c2ncc(-c3c(COC)noc3C)cc21 [P-0210, 4-(3-(cyclobutylmethyl)-6-(3-(methoxymethyl)-5-methylisoxazol-4-yl)-1H-pyrrolo[3,2-b]pyridin-1-yl)-3,5-diethoxybenzoic acid] the IC50 was 0.1 to 1000 nM. Work on Cc1cnccc1-n1cc(-c2ccc(C(=O)O)cc2OC(F)(F)F)c2cc(-c3c(C)noc3C)cnc21 [P-0211, 4-(5-(3,5-dimethylisoxazol-4-yl)-1-(3-methylpyridin-4-yl)-1H-pyrrolo[2,3-b]pyridin-3-yl)-3-(trifluoromethoxy)benzoic acid] yielded an IC50 of 0.1 to 1000 nM. In the case of Cc1noc(C)c1-c1cnc2c(c1)c(-c1ccc(C(=O)O)cc1OC(F)(F)F)cn2C1CCS(=O)(=O)CC1 [P-0212, 4-(5-(3,5-dimethylisoxazol-4-yl)-1-(1,1-dioxidotetrahydro-2H-thiopyran-4-yl)-1H-pyrrolo[2,3-b]pyridin-3-yl)-3-(trifluoromethoxy)benzoic acid], the IC50 is reported as 0.1 to 1000 nM. Cc1noc(C)c1-c1cnc2c(c1)c(-c1ccc(C(=O)O)cc1OC(C)C)cn2C(C1CC1)C1CC1 [P-0213, 4-(1-(dicyclopropylmethyl)-5-(3,5-dimethylisoxazol-4-yl)-1H-pyrrolo[2,3-b]pyridin-3-yl)-3-isopropoxybenzoic acid] gave an IC50 of 0.1 to 1000 nM. For Cc1noc(C)c1-c1cnc2c(c1)c(-c1ccc(C(=O)O)cc1OCC(F)(F)F)cn2C(C1CC1)C1CC1 [P-0214, 4-(1-(dicyclopropylmethyl)-5-(3,5-dimethylisoxazol-4-yl)-1H-pyrrolo[2,3-b]pyridin-3-yl)-3-(2,2,2-trifluoroethoxy)benzoic acid], the IC50 was 0.1 to 1000 nM. Cc1noc(C)c1-c1cnc2c(c1)c(-c1ccc(C(=O)O)cc1OC(F)(F)F)cn2-c1ncccc1C#N [P-0215, 4-(1-(3-cyanopyridin-2-yl)-5-(3,5-dimethylisoxazol-4-yl)-1H-pyrrolo[2,3-b]pyridin-3-yl)-3-(trifluoromethoxy)benzoic acid] gave an IC50 of 0.1 to 1000 nM. Compound Cc1noc(C)c1-c1cnc2c(c1)c(-c1ccc(C(=O)O)cc1OC(F)(F)F)cn2-c1ncccc1C#CC1CC1 [P-0216, 4-(1-(3-(cyclopropylethynyl)pyridin-2-yl)-5-(3,5-dimethylisoxazol-4-yl)-1H-pyrrolo[2,3-b]pyridin-3-yl)-3-(trifluoromethoxy)benzoic acid] has an IC50 of 0.1 to 1000 nM. CCOc1cc(C(=O)O)cc(OCC)c1-n1cc(-c2ccc(C#N)cc2F)c2ncc(-c3c(C)noc3C)cc21 [P-0217, 4-(3-(4-cyano-2-fluorophenyl)-6-(3,5-dimethylisoxazol-4-yl)-1H-pyrrolo[3,2-b]pyridin-1-yl)-3,5-diethoxybenzoic acid] showed an IC50 of 0.1 to 1000 nM. For CCOc1cc(C(=O)O)cc(OCC)c1-n1cc(-c2ccc(C(=O)NC3CC3)cc2)c2ncc(-c3c(C)noc3C)cc21 [P-0218, 4-(3-(4-(cyclopropylcarbamoyl)phenyl)-6-(3,5-dimethylisoxazol-4-yl)-1H-pyrrolo[3,2-b]pyridin-1-yl)-3,5-diethoxybenzoic acid], the IC50 was 0.1 to 1000 nM. In the case of COC(=O)c1cc(OC)c(-n2cc(-c3ccccc3)c3ncc(-c4c(C)noc4C)cc32)c(OC)c1 [P-0219, methyl 4-(6-(3,5-dimethylisoxazol-4-yl)-3-phenyl-1H-pyrrolo[3,2-b]pyridin-1-yl)-3,5-dimethoxybenzoate], the IC50 is reported as 0.1 to 1000 nM. Work on COc1cc(C(=O)O)cc(OC)c1-n1cc(-c2ccccc2)c2ncc(-c3c(C)noc3C)cc21 [P-0220, 4-(6-(3,5-dimethylisoxazol-4-yl)-3-phenyl-1H-pyrrolo[3,2-b]pyridin-1-yl)-3,5-dimethoxybenzoic acid] yielded an IC50 of 0.1 to 1000 nM. With COc1cccc(OC)c1-n1cc(-c2ccccc2)c2ncc(-c3c(C)noc3C)cc21 [P-0221, 4-(1-(2,6-dimethoxyphenyl)-3-phenyl-1H-pyrrolo[3,2-b]pyridin-6-yl)-3,5-dimethylisoxazole] the IC50 was 1000 to 8000 nM. In the case of CCOc1cc(C(=O)O)cc(OCC)c1-n1cc(-c2ccnc(F)c2)c2ncc(-c3c(C)noc3C)cc21 [P-0222, 4-(6-(3,5-dimethylisoxazol-4-yl)-3-(2-fluoropyridin-4-yl)-1H-pyrrolo[3,2-b]pyridin-1-yl)-3,5-diethoxybenzoic acid], the IC50 is reported as 0.1 to 1000 nM. Compound Cc1noc(C)c1-c1cnc2c(c1)c(-c1ccc(C(=O)O)cc1OC(F)(F)F)cn2-c1ccccc1F [P-0223, 4-(5-(3,5-dimethylisoxazol-4-yl)-1-(2-fluorophenyl)-1H-pyrrolo[2,3-b]pyridin-3-yl)-3-(trifluoromethoxy)benzoic acid] has an IC50 of 0.1 to 1000 nM. Work on CCOc1cccc(Cl)c1-n1cc(-c2ccccc2)c2ncc(-c3c(C)noc3C)cc21 [P-0224, 4-(1-(2-chloro-6-ethoxyphenyl)-3-phenyl-1H-pyrrolo[3,2-b]pyridin-6-yl)-3,5-dimethylisoxazole] yielded an IC50 of 1000 to 8000 nM. With CCOc1ccc(C(=O)O)cc1-n1cc(-c2ccccc2)c2ncc(-c3c(C)noc3C)cc21 [P-0225, 3-(6-(3,5-dimethylisoxazol-4-yl)-3-phenyl-1H-pyrrolo[3,2-b]pyridin-1-yl)-4-ethoxybenzoic acid] the IC50 was 0.1 to 1000 nM. In the case of Cc1noc(C)c1-c1cnc2c(c1)c(-c1ccc(C(=O)O)cc1OC(F)(F)F)cn2C1CCOCC1 [P-0226, 4-(5-(3,5-dimethylisoxazol-4-yl)-1-(tetrahydro-2H-pyran-4-yl)-1H-pyrrolo[2,3-b]pyridin-3-yl)-3-(trifluoromethoxy)benzoic acid], the IC50 is reported as 0.1 to 1000 nM. Compound Cc1noc(C)c1-c1cnc2c(c1)c(-c1ccc(C(=O)O)cc1OC(F)(F)F)cn2C1CCC(F)(F)CC1 [P-0227, 4-(1-(4,4-difluorocyclohexyl)-5-(3,5-dimethylisoxazol-4-yl)-1H-pyrrolo[2,3-b]pyridin-3-yl)-3-(trifluoromethoxy)benzoic acid] has an IC50 of 0.1 to 1000 nM. In the case of Cc1noc(C)c1-c1cnc2c(c1)c(-c1ccc(C(=O)O)cc1OC(F)(F)F)c(C)n2-c1ccccn1 [P-0228, 4-(5-(3,5-dimethylisoxazol-4-yl)-2-methyl-1-(pyridin-2-yl)-1H-pyrrolo[2,3-b]pyridin-3-yl)-3-(trifluoromethoxy)benzoic acid], the IC50 is reported as 0.1 to 1000 nM. With Cc1noc(C)c1-c1cnc2c(-c3ccc(F)cc3F)cn(-c3ccc(C(=O)O)cc3OC(F)(F)F)c2c1 [P-0229, 4-(3-(2,4-difluorophenyl)-6-(3,5-dimethylisoxazol-4-yl)-1H-pyrrolo[3,2-b]pyridin-1-yl)-3-(trifluoromethoxy)benzoic acid] the IC50 was 0.1 to 1000 nM. With Cc1noc(C)c1-c1cnc2c(c1)c(-c1c(F)cc(C(=O)O)cc1OC(F)(F)F)cn2C(C1CC1)C1CC1 [P-0230, 4-(1-(dicyclopropylmethyl)-5-(3,5-dimethylisoxazol-4-yl)-1H-pyrrolo[2,3-b]pyridin-3-yl)-3-fluoro-5-(trifluoromethoxy)benzoic acid] the IC50 was 0.1 to 1000 nM. Work on Cc1ccccc1-n1cc(-c2ccc(C(=O)O)cc2OC(F)(F)F)c2cc(-c3c(C)noc3C)cnc21 [P-0231, 4-(5-(3,5-dimethylisoxazol-4-yl)-1-(o-tolyl)-1H-pyrrolo[2,3-b]pyridin-3-yl)-3-(trifluoromethoxy)benzoic acid] yielded an IC50 of 0.1 to 1000 nM. Cc1noc(C)c1-c1cnc2c(c1)c(-c1ccc(C(=O)O)cc1OC(F)(F)F)cn2-c1ccc(F)cc1F [P-0232, 4-(1-(2,4-difluorophenyl)-5-(3,5-dimethylisoxazol-4-yl)-1H-pyrrolo[2,3-b]pyridin-3-yl)-3-(trifluoromethoxy)benzoic acid] showed an IC50 of 0.1 to 1000 nM. For Cc1noc(C)c1-c1cnc2c(c1)c(-c1ccc(C(=O)O)cc1OC(F)(F)F)cn2-c1cc(F)ccc1F [P-0233, 4-(1-(2,5-difluorophenyl)-5-(3,5-dimethylisoxazol-4-yl)-1H-pyrrolo[2,3-b]pyridin-3-yl)-3-(trifluoromethoxy)benzoic acid], the IC50 was 0.1 to 1000 nM. Cc1noc(C)c1-c1cnc2c(-c3ccc(C(=O)O)cc3F)c(C(F)(F)F)n([C@@H](C)c3ccccn3)c2c1 [P-0234, (S)-4-(6-(3,5-dimethylisoxazol-4-yl)-1-(1-(pyridin-2-yl)ethyl)-2-(trifluoromethyl)-1H-pyrrolo[3,2-b]pyridin-3-yl)-3-fluorobenzoic acid] showed an IC50 of 0.1 to 1000 nM. Cc1cc(C(=O)O)ccc1-c1c(C(F)(F)F)n([C@@H](C)c2ccccn2)c2cc(-c3c(C)noc3C)cnc12 [P-0235, (S)-4-(6-(3,5-dimethylisoxazol-4-yl)-1-(1-(pyridin-2-yl)ethyl)-2-(trifluoromethyl)-1H-pyrrolo[3,2-b]pyridin-3-yl)-3-methylbenzoic acid] showed an IC50 of 0.1 to 1000 nM. Work on COc1cc(C(=O)O)ccc1-c1c(C(F)(F)F)n([C@@H](C)c2ccccn2)c2cc(-c3c(C)noc3C)cnc12 [P-0236, (S)-4-(6-(3,5-dimethylisoxazol-4-yl)-1-(1-(pyridin-2-yl)ethyl)-2-(trifluoromethyl)-1H-pyrrolo[3,2-b]pyridin-3-yl)-3-methoxybenzoic acid] yielded an IC50 of 0.1 to 1000 nM. Work on Cc1noc(C)c1-c1cnc2c(-c3cn(C)nc3C3CC3)c(C(F)(F)F)n([C@@H](C)c3ccccn3)c2c1 [P-0237, (S)-4-(3-(3-cyclopropyl-1-methyl-1H-pyrazol-4-yl)-1-(1-(pyridin-2-yl)ethyl)-2-(trifluoromethyl)-1H-pyrrolo[3,2-b]pyridin-6-yl)-3,5-dimethylisoxazole] yielded an IC50 of 0.1 to 1000 nM. For Cc1noc(C)c1-c1cnc2c(-c3cc(C(=O)O)ccc3F)c(C(F)(F)F)n([C@@H](C)c3ccccn3)c2c1 [P-0238, (S)-3-(6-(3,5-dimethylisoxazol-4-yl)-1-(1-(pyridin-2-yl)ethyl)-2-(trifluoromethyl)-1H-pyrrolo[3,2-b]pyridin-3-yl)-4-fluorobenzoic acid], the IC50 was 0.1 to 1000 nM.
